Measurements published in patent US5110925A, “Pyridazinone derivatives” (Nippon Soda Co., Ltd., priority 1988, dated 1992).
≈ marks a conversion by molar mass, not a printed value. Read-outs that look alike come from different tables or passages of the source.

Tests used:
Anesthetized Dogs = assay: Cardiotonic Action: Anesthetized Dogs; assay type: in vivo, dog (adult mongrel); conditions: for ED50: Canis lupus familiaris, iv, read-out: LVdp/dtmax ED50; for % Changes in Heart rate / % Changes in Blood pressure: i.v.; for % Changes in Blood pressure: femoral arterial pressure
Method: Adult mongrel dogs of either sex weighing 8 to 15 kg were used.
The animals were anesthetized with sodium pentobarbital (30 mg/kg, i.v.) and maintained by an intravenous infusion of the anesthetic at a rate of 4 mg/kg per hour.
A cuffed endotracheal tube was inserted and an artificial respirator installed. The animals were ventilated with room air in a tidal volume of 20 ml/kg at a rate of 20 brearhs per minute.
Cannulae were inserted into the femoral vein for a falling drop of a physiological saline or for an infusion of the anesthetic, and into the femoral artery for measuring arterial blood pressure with a pressure transducer. Heart rate was recorded with a heart rate counter triggered by the R wave of the electrocardiogram (ECG).
ECG in standard lead II was monitored with a bioelectric amplifier.
Left ventricular pressure was measured with a catheter tip pressure transducer inserted via the right carotid artery into the left ventricle. Left ventricular dp/dtmax was obtained by an electric differentiator.
The compounds were injected through the cannula in the femoral vein at a dose of 0.001-0.3 mg/0.1 ml/kg.

PDE-II = molecular target: T1, PDE-II (Cavia porcellus, UniProt A0A286XUV5); assay: Inhibition of Phosphodiesterase PDE-II; assay type: biochemical, guinea pig (left ventricular muscles); conditions: 1 mM 3H-cAMP substrate
T1 construct: different forms of cyclic nucleotide phosphodiesterase from guinea pig left ventricular muscles; from tissue; host or cells: guinea pig left ventricular muscle, DEAE-cellulose fraction
T1 sequence (A0A286XUV5 22-936): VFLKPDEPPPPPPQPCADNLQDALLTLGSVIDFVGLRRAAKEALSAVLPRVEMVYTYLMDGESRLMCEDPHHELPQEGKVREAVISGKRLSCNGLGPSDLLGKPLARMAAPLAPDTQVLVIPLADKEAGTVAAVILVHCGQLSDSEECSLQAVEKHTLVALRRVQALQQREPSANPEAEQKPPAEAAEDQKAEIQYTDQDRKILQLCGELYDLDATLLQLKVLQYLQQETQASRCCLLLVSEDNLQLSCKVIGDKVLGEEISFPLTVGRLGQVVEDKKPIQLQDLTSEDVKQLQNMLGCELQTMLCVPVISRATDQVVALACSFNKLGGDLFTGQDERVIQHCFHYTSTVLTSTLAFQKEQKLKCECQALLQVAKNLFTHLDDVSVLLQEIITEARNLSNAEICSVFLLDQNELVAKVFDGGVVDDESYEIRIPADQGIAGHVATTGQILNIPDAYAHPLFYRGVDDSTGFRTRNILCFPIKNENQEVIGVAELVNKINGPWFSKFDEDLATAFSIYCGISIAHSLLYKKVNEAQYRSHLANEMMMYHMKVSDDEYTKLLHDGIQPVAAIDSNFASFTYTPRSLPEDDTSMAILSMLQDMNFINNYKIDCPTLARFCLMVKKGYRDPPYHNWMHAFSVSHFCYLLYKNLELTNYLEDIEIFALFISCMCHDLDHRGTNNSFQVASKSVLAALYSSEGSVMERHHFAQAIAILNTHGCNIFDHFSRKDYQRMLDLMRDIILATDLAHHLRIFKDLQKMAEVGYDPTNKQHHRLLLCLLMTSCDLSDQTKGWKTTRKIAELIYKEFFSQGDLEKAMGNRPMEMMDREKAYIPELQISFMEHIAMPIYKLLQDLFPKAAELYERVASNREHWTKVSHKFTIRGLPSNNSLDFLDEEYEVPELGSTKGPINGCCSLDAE
Description: (§1) The preparation of different forms of cyclic nucleotide phosphodiesterase from guinea pig left ventricular muscles was done by following the procedure of Weishaar, et al. (R. Weishaar, et al., Biochemical Pharmacology, 35, 787-800, 1986) with the minor modified method of Thompson, et al. (W. J. Thompson, et al., Advances in Cyclic Nucleotide Research, 10, 69-92, 1979). Briefly, the three active forms of phosphodiesterase (PDE-I, PDE-II, PDE-III) present in the ventricular muscles were discretely eluted from a DEAE-cellulose column (Whatman, DE-52, .phi. 2.5×20 cm) using a continuous 70-800 mM sodium acetate gradient.
(§2) The phosphodiesterase activity was assayed by minor modifications of the method described by Furutani et al. (Y. Furutani, et al., Journal of Antibiotics, 28, 558-560, 1975). Briefly, 1 mM ^3 H-cAMP was hydrolyzed by the phosphodiesterase and the unhydrolyzed ^3 H-cAMP which was separated from the formed 5'-AMP by a dry alumina (Merck, activity 1, neutral) was counted by a liquid scintillation counter.
(§3) The concentrations causing a 50% inhibition of the phosphodiesterase activity (IC50) were calculated from the concentration-inhibition curves.

mice = assay: Acute Toxicity in mice, oral single dose; assay type: in vivo, mouse (male); conditions: male mice, 300 mg/kg, p.o., 7 days observation
Description: The acute toxicity of the test compounds was studied in male mice after oral administration of a single dose.

PDE-III = molecular target: T2, PDE-III (Cavia porcellus, UniProt H0VIU9); assay: Inhibition of Phosphodiesterase PDE-III; assay type: biochemical, guinea pig (left ventricular muscles)
T2 construct: different forms of cyclic nucleotide phosphodiesterase from guinea pig left ventricular muscles; from tissue; host or cells: guinea pig left ventricular muscle, DEAE-cellulose fraction
T2 sequence (H0VIU9 1-1132): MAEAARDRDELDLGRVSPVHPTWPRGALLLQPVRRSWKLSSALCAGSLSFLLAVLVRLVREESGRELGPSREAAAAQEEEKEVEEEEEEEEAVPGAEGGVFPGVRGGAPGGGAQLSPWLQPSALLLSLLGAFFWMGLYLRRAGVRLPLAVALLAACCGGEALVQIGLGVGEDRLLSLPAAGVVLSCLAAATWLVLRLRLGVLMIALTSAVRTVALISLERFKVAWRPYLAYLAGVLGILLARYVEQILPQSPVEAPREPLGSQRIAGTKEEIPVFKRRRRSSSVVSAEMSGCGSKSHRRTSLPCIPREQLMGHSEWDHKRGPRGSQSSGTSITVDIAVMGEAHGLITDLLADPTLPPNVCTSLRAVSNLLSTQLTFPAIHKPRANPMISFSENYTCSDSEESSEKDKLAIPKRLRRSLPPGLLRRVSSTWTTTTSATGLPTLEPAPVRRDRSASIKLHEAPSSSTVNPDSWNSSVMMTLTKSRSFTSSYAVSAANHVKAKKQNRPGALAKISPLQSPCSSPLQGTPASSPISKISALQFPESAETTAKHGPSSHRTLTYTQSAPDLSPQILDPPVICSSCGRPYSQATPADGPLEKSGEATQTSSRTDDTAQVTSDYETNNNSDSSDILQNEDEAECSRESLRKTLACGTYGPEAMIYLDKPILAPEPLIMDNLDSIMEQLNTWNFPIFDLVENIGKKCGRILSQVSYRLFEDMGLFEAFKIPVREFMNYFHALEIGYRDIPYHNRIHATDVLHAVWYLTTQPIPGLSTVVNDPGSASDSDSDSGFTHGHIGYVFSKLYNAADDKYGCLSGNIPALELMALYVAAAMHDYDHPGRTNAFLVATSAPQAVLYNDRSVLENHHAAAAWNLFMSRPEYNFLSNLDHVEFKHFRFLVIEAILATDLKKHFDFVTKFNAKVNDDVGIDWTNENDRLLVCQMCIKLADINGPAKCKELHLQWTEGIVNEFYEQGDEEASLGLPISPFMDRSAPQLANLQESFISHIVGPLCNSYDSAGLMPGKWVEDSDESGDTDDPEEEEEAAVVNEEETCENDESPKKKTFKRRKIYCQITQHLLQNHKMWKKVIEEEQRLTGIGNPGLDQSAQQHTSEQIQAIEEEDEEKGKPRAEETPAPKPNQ
Description: as §1, §2, §3

PDE-I = assay: Inhibition of Phosphodiesterase PDE-I; assay type: biochemical, guinea pig (left ventricular muscles); conditions: 1 mM 3H-cAMP substrate
Description: as §1, §2, §3

guinea pig left atria = assay: Cardiotonic Action: Electrically Stimulating Isolated Guinea Pig Left Atria; parameters: species or system guinea pig (male Hartley); conditions: Cavia porcellus, read-out: contractility of guinea pig left atria EC50
Method: Male Hartley guinea pigs weighing 350-500 g were used.
The hearts were excised from the animals. The left atria were dissected from the hearts and mounted in an organ bath.
The atria were stimulated by square wave pulses of 3 msec duration and a voltage ranging from 1.2-fold to 1.5-fold of the threshold at a frequency of 60/min with an electric stimulator.
Resting tension was adjusted to 0.5 g and contraction was recorded on the Polygraph Systems with a force-displacement transducer.
All preparations were allowed to equilibrate with the bath medium for 90 to 120 min.

[1] = dose producing a 50% increase in LVdp/dtmax, anesthetized dogs
[2] = 1 mM 3H-cAMP substrate, read-out: phosphodiesterase inhibition IC50 PDE-III
[3] = concentration causing a 50% increase in contractility, cumulative addition, 30° C.

SMILES	ED50 (Anesthetized Dogs; [1])	% Changes in Heart rate (Anesthetized Dogs; anesthetized dogs)	% Changes in Blood pressure (Anesthetized Dogs; anesthetized dogs)	IC50 (PDE-II)	mortality (number of dead animals/number of treated animals) (mice)	IC50 (PDE-III; [2])	IC50 (PDE-I)	EC50 (guinea pig left atria; [3])	ED50 (Anesthetized Dogs)	IC50 (PDE-III)	EC50 (guinea pig left atria)
CC1(C)CC(=O)C=C(Nc2ccc(C3=NNC(=O)CC3)cc2)C1 [Compound 1]	0.043 mg/kg	5%	-1%	250 µM	0/3	1.2 µM	900 µM	0.23 µg/mL (≈ 0.739 µM)			
CC1=C(Nc2ccc(C3=NNC(=O)CC3C)cc2)CCC1=O (stereo not shown) [Compound 15, 4,5-Dihydro-6-(4-((2-methyl-3-oxo-1-cyclopentenyl)amino)phenyl)-5-methyl-3(2H)-pyridazinone]	0.012 mg/kg	19%	-18%	940 µM		0.59 µM	> 1000 µM	0.054 µg/mL (≈ 0.182 µM)			
O=C1C=C(Nc2ccc(C3=NNC(=O)CC3)cc2)CC1 [Compound 2, 4,5-Dihydro-6-((4-(3-oxo-1-cyclopentenyl)amino)phenyl)-3(2H)-pyridazinone]	0.006 mg/kg	6%	-2%	235 µM	0/3	1.2 µM	1000 µM	0.11 µg/mL (≈ 0.408 µM)			
Cc1[nH]c(=O)c(C#N)cc1-c1ccncc1 [Milrinone, milrinone, reference compound]		6%	-6%	142 µM	3/3		151 µM		0.023 mg/kg	2.8 µM	0.43 µg/mL (≈ 2.04 µM)
CC1=C(Nc2ccc(C3=NNC(=O)CC3)cc2)CCC1=O [Compound 4, 4,5-Dihydro-6-(4-((2-methyl-3-oxo-1-cyclopentenyl)-amino)phenyl)-3(2H)-pyridazinone]	0.012 mg/kg	5%	-2%	330 µM	1/3	2 µM	610 µM	0.24 µg/mL (≈ 0.847 µM)			
CC1CC(=O)NN=C1c1ccc(NC2=CC(=O)CC2)cc1 (stereo not shown) [Compound 14, 4,5-Dihydro-6-(4-((3-oxo-1-cyclopentenyl)amino)phenyl)-5-methyl-3(2H)-pyridazinone]	0.008 mg/kg	13%	-11%	260 µM		0.88 µM	310 µM	0.12 µg/mL (≈ 0.424 µM)			
O=C1C=C(Nc2ccc3c(c2)OCC2CC(=O)NN=C32)CC1 (stereo not shown) [Compound 24, 8-(3-oxo-1-cyclopentenylamino)-3,4,4a,5-tetrahydro-2H-(1)benzopyrano(4,3-c)-pyridazinon-3-one]	0.022 mg/kg	4%	-7%	100 µM		4.1 µM	> 100 µM				
O=C1CCC(c2ccc(-n3ccnc3)cc2)=NN1 [CI-914, reference compound]	0.095 mg/kg	9%	-10%		2/3	5.7 µM	> 1000 µM	1.8 µg/mL (≈ 7.49 µM)			
O=C1C=C(Nc2ccc3c(c2)CCC2CC(=O)NN=C32)CC1 (stereo not shown) [Compound 35]	0.023 mg/kg	3%	-4%	49 µM		1.6 µM	> 100 µM				
O=C1C=C(Nc2ccc(C3=NNC(=O)CC3)cc2)CCC1 [Compound 3]	0.009 mg/kg	2%	-4%	180 µM	0/3	0.47 µM	210 µM	0.23 µg/mL (≈ 0.812 µM)			
CC1=C(Nc2ccc3c(c2)OCC2CC(=O)NN=C32)CCC1=O (stereo not shown) [Compound 26]	0.03 mg/kg	8%	-6%	100 µM		2.3 µM	> 1000 µM				
